For this assay, the system named is Qol resistant Pyricularia oryzae isolate (1328). In kind it is cell-based. The following applies: single active compound, MTP, 405 nm, 7 days after inoculation.

Read-outs that look alike come from different tables or passages of the source.

With `CNC(=O)C(=N/OC)/C(C)=C\COc1ccn(-c2ccc(Cl)cc2)n1` [Compound I-1, (Z,2E)-5-[1-(4-chlorophenyl)pyrazol-3-yl]oxy-2-methoxyimino-N,3-dimethyl-pent-3-enamide], the Observed efficacy was determined as 1% (0.063 ppm) and 65% (0.25 ppm).
The corresponding values for `CNC(=O)C(=N/OC)/C(C)=C\COc1ccn(-c2ccc(Cl)cc2Cl)n1` [Compound I-3, (Z,2E)-5-[1-(2,4-dichlorophenyl)pyrazol-3-yl]oxy-2-methoxyimino-N,3-dimethyl-pent-3-en-amide] are 2% and 54%.
`Cn1nnn(-c2cccc(Cl)c2COc2ccn(-c3ccc(Cl)cc3)n2)c1=O` [II-1, 1-[3-chloro-2[[1-(4-chlorophenyl)-1H-pyrazol-3-yl]oxymethyl]phenyl]-4-methyl-tetrazol-5-one] came in with an Observed efficacy (0.016 ppm) of 0%.
In turn, `Cn1nnn(-c2cccc(Br)c2COc2ccn(-c3ccc(Cl)cc3)n2)c1=O` [II-2, 1-[3-bromo-2-[[1-(4-chlorophenyl)pyrazol-3-yl]oxymethyl]phenyl]-4-methyl-tetrazol-5-one] gave an Observed efficacy (0.016 ppm) of 2%.
The same measure, in the same setting: the value for `Cc1cccc(-n2nnn(C)c2=O)c1COc1ccn(-c2ccc(Cl)cc2)n1` [II-3, 1-[2-[[1-(4-chlorophenyl)pyrazol-3-yl]oxymethyl]-3-methyl-phenyl]-4-methyl-tetrazol-5-one] was 44%.
Turning to `Cn1nnn(-c2cccc(F)c2COc2ccn(-c3ccc(Cl)cc3)n2)c1=O` [II-4, 1-[2-[[1-(4-chlorophenyl)pyrazol-3-yl]oxymethyl]-3-fluoro-phenyl]-4-methyl-tetrazol-5-one], the Observed efficacy (0.063 ppm) was determined as 1%.
The molecule `Cn1nnn(-c2cccc(F)c2COc2ccn(-c3ccc(Cl)cc3Cl)n2)c1=O` [II-5, 1-[2-[[1-(2,4-dichlorophenyl)pyrazol-3-yl]oxymethyl]-3-fluoro-phenyl]-4-methyl-tetrazol-5-one] yielded an Observed efficacy (0.25 ppm) of 44%.
For `CC(=NOCc1c(C)cccc1-n1nnn(C)c1=O)c1cccc(C(F)(F)F)c1` [II-11, -methyl-4-[3-methyl-2-[[1-[3-(trifluoromethyl)-phenyl]-ethylideneamino]oxymethyl]phenyl]tetrazol-5-one], for the setting “0.063 ppm”, the Observed efficacy worked out at 2%.

Values taken from patent publication US20180235221A1 (priority 2015, published 2018).
